ChEMBL document CHEMBL1146889, “Homo-cysteinyl peptide inhibitors of the L1 metallo-beta-lactamase, and SAR as determined by combinatorial library synthesis” (Bioorg Med Chem Lett, 2006)

The compounds below were run against Beta-lactamase L1 (Stenotrophomonas maltophilia) (UniProt P52700) (assay: Inhibition of Stenotrophomonas maltophilia L1 metallo beta lactamase at 200 uM).
Sequence of Beta-lactamase L1 (Stenotrophomonas maltophilia) (P52700 34-290 limits assumed): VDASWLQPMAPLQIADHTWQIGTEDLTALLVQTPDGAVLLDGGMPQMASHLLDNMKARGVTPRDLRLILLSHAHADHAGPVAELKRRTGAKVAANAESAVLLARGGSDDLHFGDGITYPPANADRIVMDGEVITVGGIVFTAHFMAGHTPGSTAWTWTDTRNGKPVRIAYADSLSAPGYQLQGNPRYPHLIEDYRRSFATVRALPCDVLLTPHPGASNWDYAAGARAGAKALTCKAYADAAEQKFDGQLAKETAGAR

SMILES | inhibition [%]
O=C(NC(CCS)C(=O)N[C@H](Cc1ccccc1)C(=O)O)c1cccnc1S (some centres not stated) | 61
O=C(NC(CCS)C(=O)N[C@H](Cc1ccccc1)C(=O)O)c1cccs1 (some centres not stated) | 41
O=C(CCC1CCCCC1)NC(CCS)C(=O)N[C@H](Cc1ccccc1)C(=O)O (some centres not stated) | 81
O=C(CC12CC3CC(CC(C3)C1)C2)NC(CCS)C(=O)N[C@H](Cc1ccccc1)C(=O)O (some centres not stated) | 61
O=C(NC(CCS)C(=O)N[C@H](Cc1ccccc1)C(=O)O)c1cccnc1 (some centres not stated) | 61
O=C(NC(CCS)C(=O)N[C@H](Cc1ccccc1)C(=O)O)c1ccc([N+](=O)[O-])cc1 (some centres not stated) | 41
O=C(Cc1cccs1)NC(CCS)C(=O)N[C@H](Cc1ccccc1)C(=O)O (some centres not stated) | 41
C[Si](C)(C)CCC(=O)NC(CCS)C(=O)N[C@H](Cc1ccccc1)C(=O)O (some centres not stated) | 81
C=Cc1ccc(C(=O)NC(CCS)C(=O)N[C@H](Cc2ccccc2)C(=O)O)cc1 (some centres not stated) | 61
O=C(N[C@H](Cc1ccccc1)C(=O)O)C(CCS)NC(=O)C12CC3CC(CC(C3)C1)C2 (some centres not stated) | 61
Cn1cccc1C(=O)NC(CCS)C(=O)N[C@H](Cc1ccccc1)C(=O)O (some centres not stated) | 41
O=C(O)c1cc(O)cc(C(=O)NC(CCS)C(=O)N[C@H](Cc2ccccc2)C(=O)O)c1 (stereo in doubt; 49) [listing 1 of 2 here] | 81
O=C(COc1cccc2ccccc12)NC(CCS)C(=O)N[C@H](Cc1ccccc1)C(=O)O (some centres not stated) | 81
CO/N=C(/C(=O)NC(CCS)C(=O)N[C@H](Cc1ccccc1)C(=O)O)c1csc(NC=O)n1 (some centres not stated) | 41
CC(=O)Nc1ccc(CC(=O)NC(CCS)C(=O)N[C@H](Cc2ccccc2)C(=O)O)cc1[N+](=O)[O-] (some centres not stated) | 81
O=C(NC(CCS)C(=O)N[C@H](Cc1ccccc1)C(=O)O)c1ccccc1O (some centres not stated) | 41
O=C(NC(CCS)C(=O)N[C@H](Cc1ccccc1)C(=O)O)c1ccoc1 (some centres not stated) | 41
O=C(Cc1cc([N+](=O)[O-])ccc1Cl)NC(CCS)C(=O)N[C@H](Cc1ccccc1)C(=O)O (some centres not stated) | 81
O=C(Cc1c[nH]c2ccccc12)NC(CCS)C(=O)N[C@H](Cc1ccccc1)C(=O)O (some centres not stated) | 61
C=CCCC(=O)NC(CCS)C(=O)N[C@H](Cc1ccccc1)C(=O)O (some centres not stated) | 41
O=C(NC(CCS)C(=O)N[C@H](Cc1ccccc1)C(=O)O)c1cc2cc(F)ccc2[nH]1 (some centres not stated) | 81
O=C(CC(c1ccccc1)c1ccccc1)NC(CCS)C(=O)N[C@H](Cc1ccccc1)C(=O)O (some centres not stated) | 41
O=C(Cc1c[nH]cn1)NC(CCS)C(=O)N[C@H](Cc1ccccc1)C(=O)O (some centres not stated) | 41
C/C=C\C=C\C(=O)NC(CCS)C(=O)N[C@H](Cc1ccccc1)C(=O)O (some centres not stated) | 41
Cc1ccsc1C(=O)NC(CCS)C(=O)N[C@H](Cc1ccccc1)C(=O)O (some centres not stated) | 61
O=C(NC(CCS)C(=O)N[C@H](Cc1ccccc1)C(=O)O)c1ccccc1[N+](=O)[O-] (some centres not stated) | 61

SMILES | inhibition [%]
O=C(O)c1ccc(C(=O)NC(CCS)C(=O)N[C@H](Cc2ccccc2)C(=O)O)cc1 (some centres not stated) | 61
O=C(CO)NC(CCS)C(=O)N[C@H](Cc1ccccc1)C(=O)O (some centres not stated) | 41
C=C(C)C(=O)NC(CCS)C(=O)N[C@H](Cc1ccccc1)C(=O)O (some centres not stated) | 61
CC(=O)CCC(=O)NC(CCS)C(=O)N[C@H](Cc1ccccc1)C(=O)O (some centres not stated) | 41
O=C(O)CCC(=O)NC(CCS)C(=O)N[C@H](Cc1ccccc1)C(=O)O (some centres not stated) | 41
O=C(NC(CCS)C(=O)N[C@H](Cc1ccccc1)C(=O)O)c1cc2cc(Cl)ccc2[nH]1 (some centres not stated) | 81
O=C(NC(CCS)C(=O)N[C@H](Cc1ccccc1)C(=O)O)c1ccsc1 (some centres not stated) | 41
Cc1ccccc1C(=O)NC(CCS)C(=O)N[C@H](Cc1ccccc1)C(=O)O (some centres not stated) | 61
O=C(NC(CCS)C(=O)N[C@H](Cc1ccccc1)C(=O)O)C1CCCC1 (some centres not stated) | 61
O=C(Cc1ccsc1)NC(CCS)C(=O)N[C@H](Cc1ccccc1)C(=O)O (some centres not stated) | 41
Nc1nc(CC(=O)NC(CCS)C(=O)N[C@H](Cc2ccccc2)C(=O)O)cs1 (some centres not stated) | 41
O=C(NC(CCS)C(=O)N[C@H](Cc1ccccc1)C(=O)O)c1ccc2cc[nH]c2c1 (some centres not stated) | 41
Cc1nocc1C(=O)NC(CCS)C(=O)N[C@H](Cc1ccccc1)C(=O)O (some centres not stated) | 61
CCCCCCCC(=O)NC(CCS)C(=O)N[C@H](Cc1ccccc1)C(=O)O (some centres not stated) | 41
O=C(NC(CCS)C(=O)N[C@H](Cc1ccccc1)C(=O)O)C1CCCCC1 (some centres not stated) | 61
Cc1occc1C(=O)NC(CCS)C(=O)N[C@H](Cc1ccccc1)C(=O)O (some centres not stated) | 41
CC(=O)Nc1cccc(C(=O)NC(CCS)C(=O)N[C@H](Cc2ccccc2)C(=O)O)c1 (some centres not stated) | 61
Cc1ccc(C(=O)NC(CCS)C(=O)N[C@H](Cc2ccccc2)C(=O)O)c(O)n1 (some centres not stated) | 61
O=C(Cc1cccc2ccccc12)NC(CCS)C(=O)N[C@H](Cc1ccccc1)C(=O)O (some centres not stated) | 61
CCCCc1ccc(C(=O)NC(CCS)C(=O)N[C@H](Cc2ccccc2)C(=O)O)nc1 (stereo in doubt; 91) [listing 1 of 2 here] | 81
Cc1cn(C)c(CC(=O)NC(CCS)C(=O)N[C@H](Cc2ccccc2)C(=O)O)c1C(=O)O (some centres not stated) | 41
O=C(NC(CCS)C(=O)N[C@H](Cc1ccccc1)C(=O)O)c1ccccc1C(=O)c1ccccc1 (some centres not stated) | 41
O=C(O)c1cccc(C(=O)NC(CCS)C(=O)N[C@H](Cc2ccccc2)C(=O)O)n1 (stereo in doubt; 84) [listing 1 of 2 here] | 81
O=C(O)CCCCC(=O)NC(CCS)C(=O)N[C@H](Cc1ccccc1)C(=O)O (some centres not stated) | 41
Cc1ccc(C(=O)NC(CCS)C(=O)N[C@H](Cc2ccccc2)C(=O)O)s1 (some centres not stated) | 41
O=C(NC(CCS)C(=O)N[C@H](Cc1ccccc1)C(=O)O)c1ccno1 (some centres not stated) | 61

SMILES | inhibition [%]
O=C(NC(CCS)C(=O)N[C@H](Cc1ccccc1)C(=O)O)c1cc2ccccc2s1 (some centres not stated) | 61
O=C(NC(CCS)C(=O)N[C@H](Cc1ccccc1)C(=O)O)c1cnc(O)c(Cl)c1 (some centres not stated) | 81
CC(C)CC(=O)NC(CCS)C(=O)N[C@H](Cc1ccccc1)C(=O)O (some centres not stated) | 21
NC(=O)CCC(=O)NC(CCS)C(=O)N[C@H](Cc1ccccc1)C(=O)O (some centres not stated) | 41
O=C(NC(CCS)C(=O)N[C@H](Cc1ccccc1)C(=O)O)C1CCC1 (some centres not stated) | 0
O=C(NC(CCS)C(=O)N[C@H](Cc1ccccc1)C(=O)O)c1ccc([N+](=O)[O-])c(O)c1 (some centres not stated) | 61
O=C(NC(CCS)C(=O)N[C@H](Cc1ccccc1)C(=O)O)c1ccco1 (some centres not stated) | 41
CC(C)C(=O)NC(CCS)C(=O)N[C@H](Cc1ccccc1)C(=O)O (some centres not stated) | 41
O=C(O)c1cccnc1C(=O)NC(CCS)C(=O)N[C@H](Cc1ccccc1)C(=O)O (some centres not stated) | 41
O=C(NC(CCS)C(=O)N[C@H](Cc1ccccc1)C(=O)O)c1cccc(O)c1 (some centres not stated) | 41
O=C(NC(CCS)C(=O)N[C@H](Cc1ccccc1)C(=O)O)c1ccc2[nH]ccc2c1 (some centres not stated) | 61
O=C(NC(CCS)C(=O)N[C@H](Cc1ccccc1)C(=O)O)c1cc[nH]c1 (some centres not stated) | 41
O=C(COc1ccccc1)NC(CCS)C(=O)N[C@H](Cc1ccccc1)C(=O)O (some centres not stated) | 61
O=C(CCc1cccnc1)NC(CCS)C(=O)N[C@H](Cc1ccccc1)C(=O)O (some centres not stated) | 41
Cc1ccc(C(=O)NC(CCS)C(=O)N[C@H](Cc2ccccc2)C(=O)O)c(Cl)n1 (some centres not stated) | 61
O=C(/C=C\c1ccco1)NC(CCS)C(=O)N[C@H](Cc1ccccc1)C(=O)O (some centres not stated) | 21
O=C(N[C@H](Cc1ccccc1)C(=O)O)C(CCS)NC(=O)C(c1ccccc1)c1ccccc1 (some centres not stated) | 61
O=C(CC(O)C(=O)O)NC(CCS)C(=O)N[C@H](Cc1ccccc1)C(=O)O (some centres not stated) | 41
O=C(NC(CCS)C(=O)N[C@H](Cc1ccccc1)C(=O)O)c1ccccc1-c1ccccc1 (some centres not stated) | 41
O=C(Cc1ccccc1)NC(CCS)C(=O)N[C@H](Cc1ccccc1)C(=O)O (some centres not stated) | 61
O=C(/C=C\c1c[nH]c2ccccc12)NC(CCS)C(=O)N[C@H](Cc1ccccc1)C(=O)O (some centres not stated) | 21
CC(=O)Oc1ccccc1C(=O)NC(CCS)C(=O)N[C@H](Cc1ccccc1)C(=O)O (some centres not stated) | 41
O=C(NC(CCS)C(=O)N[C@H](Cc1ccccc1)C(=O)O)c1cnccn1 (some centres not stated) | 61
C=C(C(=O)NC(CCS)C(=O)N[C@H](Cc1ccccc1)C(=O)O)C(F)(F)F (some centres not stated) | 61
CCCC(=O)NC(CCS)C(=O)N[C@H](Cc1ccccc1)C(=O)O (some centres not stated) | 41

These compounds were tested against Beta-lactamase L1 (Stenotrophomonas maltophilia, UniProt P52700) (assay: Inhibition of Stenotrophomonas maltophilia L1 metallo beta lactamase).
Sequence of Beta-lactamase L1 (P52700 whole entry): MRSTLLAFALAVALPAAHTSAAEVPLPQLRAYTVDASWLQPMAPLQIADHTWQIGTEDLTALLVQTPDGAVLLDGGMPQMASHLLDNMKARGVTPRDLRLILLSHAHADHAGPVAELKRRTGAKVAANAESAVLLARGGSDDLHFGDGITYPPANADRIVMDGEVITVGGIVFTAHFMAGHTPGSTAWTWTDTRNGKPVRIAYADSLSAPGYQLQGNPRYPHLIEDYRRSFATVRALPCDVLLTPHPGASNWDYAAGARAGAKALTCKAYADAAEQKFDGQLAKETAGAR

SMILES | Ki [nM]
O=C(CCC1CCCCC1)NC(CCS)C(=O)N[C@H](Cc1ccccc1)C(=O)O (some centres not stated) | 780
CCCCc1ccc(C(=O)NC(CS)C(=O)N[C@H](Cc2ccccc2)C(=O)O)nc1 (some centres not stated) | 880
C[Si](C)(C)CCC(=O)NC(CCS)C(=O)N[C@H](Cc1ccccc1)C(=O)O (some centres not stated) | 520
O=C(COc1cccc2ccccc12)NC(CCS)C(=O)N[C@H](Cc1ccccc1)C(=O)O (some centres not stated) | 290
CC(=O)Nc1ccc(CC(=O)NC(CCS)C(=O)N[C@H](Cc2ccccc2)C(=O)O)cc1[N+](=O)[O-] (some centres not stated) | 390
O=C(Cc1cc([N+](=O)[O-])ccc1Cl)NC(CCS)C(=O)N[C@H](Cc1ccccc1)C(=O)O (some centres not stated) | 780
O=C(NC(CCS)C(=O)N[C@H](Cc1ccccc1)C(=O)O)c1cc2cc(F)ccc2[nH]1 (some centres not stated) | 12
O=C(O)c1cc(O)cc(C(=O)NC(CCS)C(=O)N[C@H](Cc2ccccc2)C(=O)O)c1 (stereo in doubt; 49) [listing 2 of 2 here] | 140
NC(=O)[C@@H](Cc1ccccc1)NC(=O)C(CCS)NC(=O)c1cc(O)cc(C(=O)O)c1 (single isomer, unassigned; diastereomer 1) | 2.1
O=C(NC(CCS)C(=O)N[C@H](Cc1ccccc1)C(=O)O)c1c[nH]c(=O)c(Cl)c1 (some centres not stated) | 260
NC(=O)[C@@H](Cc1ccccc1)NC(=O)C(CCS)NC(=O)c1cc(O)cc(C(=O)O)c1 (stereo in doubt; 95) | 5.8
O=C(NC(CCS)C(=O)N[C@H](Cc1ccccc1)C(=O)O)c1cc2cc(Cl)ccc2[nH]1 (some centres not stated) | 200
O=C(O)c1cccc(C(=O)NC(CCS)C(=O)N[C@H](Cc2ccccc2)C(=O)O)n1 (stereo in doubt; 94) | 120
CCCCc1ccc(C(=O)NC(CCS)C(=O)N[C@H](Cc2ccccc2)C(=O)O)nc1 (stereo in doubt; 6) | 230
O=C(Cc1ccc(Br)cc1)NC(CS)C(=O)N[C@H](Cc1ccccc1)C(=O)O (some centres not stated) | 3670
NC(=O)[C@@H](Cc1ccccc1)NC(=O)C(CCS)NC(=O)c1cc(O)cc(C(=O)O)c1 (single isomer, unassigned) | 130
NC(=O)[C@@H](Cc1ccccc1)NC(=O)C(CCS)NC(=O)c1cccc(C(=O)O)n1 (some centres not stated) | 26
O=C(O)c1cccc(C(=O)NC(CCS)C(=O)N[C@H](Cc2ccccc2)C(=O)O)n1 (stereo in doubt; 84) [listing 2 of 2 here] | 12
CCCCc1ccc(C(=O)NC(CCS)C(=O)N[C@H](Cc2ccccc2)C(=O)O)nc1 (stereo in doubt; 91) [listing 2 of 2 here] | 230
O=C(O)c1cc(O)cc(C(=O)NC(CCS)C(=O)N[C@H](Cc2ccccc2)C(=O)O)c1 (stereo in doubt; 96) | 140
